{
  "source": "paper PMC8138761",
  "about": "(The Journal of Biological Chemistry, 2021)",
  "format_in_all_cases": "biochemical",
  "conditions_in_all_cases": "read-out: % inhibition at 10 μM",
  "key": {"[1]": {"target": "T1, checkpoint kinase-1 (CHK1) (Homo sapiens, UniProt O14757)", "T1 sequence (O14757 1-476)": "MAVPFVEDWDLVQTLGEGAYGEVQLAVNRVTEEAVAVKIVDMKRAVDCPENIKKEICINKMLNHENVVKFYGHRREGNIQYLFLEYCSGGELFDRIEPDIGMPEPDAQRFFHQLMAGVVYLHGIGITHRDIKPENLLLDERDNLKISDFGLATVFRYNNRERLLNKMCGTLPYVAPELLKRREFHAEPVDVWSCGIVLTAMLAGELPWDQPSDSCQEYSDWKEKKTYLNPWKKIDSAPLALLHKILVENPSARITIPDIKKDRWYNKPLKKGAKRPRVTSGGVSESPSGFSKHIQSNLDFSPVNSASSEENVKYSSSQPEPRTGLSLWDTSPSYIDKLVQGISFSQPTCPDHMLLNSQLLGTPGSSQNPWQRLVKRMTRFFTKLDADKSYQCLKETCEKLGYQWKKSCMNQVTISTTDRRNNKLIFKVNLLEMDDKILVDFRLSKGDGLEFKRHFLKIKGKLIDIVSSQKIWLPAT", "assay": "in vitro FRET kinase profiling at […], duplicate"}, "[2]": {"target": "cyclin-dependent kinase (CDK) 1 (Homo sapiens, UniProt P06493)", "sequence (P06493 whole entry)": "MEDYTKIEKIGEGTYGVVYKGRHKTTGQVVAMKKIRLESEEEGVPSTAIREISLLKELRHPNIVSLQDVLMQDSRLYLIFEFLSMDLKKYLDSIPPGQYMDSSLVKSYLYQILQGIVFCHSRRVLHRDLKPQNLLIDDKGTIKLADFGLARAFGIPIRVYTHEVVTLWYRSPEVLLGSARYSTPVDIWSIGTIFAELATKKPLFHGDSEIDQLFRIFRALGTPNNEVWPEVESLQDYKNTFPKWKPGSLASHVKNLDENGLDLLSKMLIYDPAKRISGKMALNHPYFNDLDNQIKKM", "sequence (P14635 whole entry, further chain)": "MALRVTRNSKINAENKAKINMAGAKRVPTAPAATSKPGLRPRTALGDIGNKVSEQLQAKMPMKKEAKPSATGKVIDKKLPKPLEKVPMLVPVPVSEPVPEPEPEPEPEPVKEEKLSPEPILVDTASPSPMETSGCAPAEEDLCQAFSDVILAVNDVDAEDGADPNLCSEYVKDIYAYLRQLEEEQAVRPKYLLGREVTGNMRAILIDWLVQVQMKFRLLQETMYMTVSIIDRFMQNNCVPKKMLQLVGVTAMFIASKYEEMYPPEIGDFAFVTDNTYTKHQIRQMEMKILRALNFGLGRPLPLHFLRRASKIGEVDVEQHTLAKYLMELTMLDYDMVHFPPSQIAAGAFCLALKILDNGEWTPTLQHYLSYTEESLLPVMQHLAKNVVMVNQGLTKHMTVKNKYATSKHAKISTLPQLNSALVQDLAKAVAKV", "assay": "in vitro FRET kinase profiling at […], duplicate"}, "[3]": {"target": "checkpoint kinase-2 (CHK2) (Homo sapiens, UniProt O96017)", "assay": "in vitro FRET kinase profiling at […], duplicate"}, "[4]": {"target": "serine/threonine protein kinase-24 (MST3) (Homo sapiens, UniProt Q9Y6E0)", "sequence (Q9Y6E0 whole entry)": "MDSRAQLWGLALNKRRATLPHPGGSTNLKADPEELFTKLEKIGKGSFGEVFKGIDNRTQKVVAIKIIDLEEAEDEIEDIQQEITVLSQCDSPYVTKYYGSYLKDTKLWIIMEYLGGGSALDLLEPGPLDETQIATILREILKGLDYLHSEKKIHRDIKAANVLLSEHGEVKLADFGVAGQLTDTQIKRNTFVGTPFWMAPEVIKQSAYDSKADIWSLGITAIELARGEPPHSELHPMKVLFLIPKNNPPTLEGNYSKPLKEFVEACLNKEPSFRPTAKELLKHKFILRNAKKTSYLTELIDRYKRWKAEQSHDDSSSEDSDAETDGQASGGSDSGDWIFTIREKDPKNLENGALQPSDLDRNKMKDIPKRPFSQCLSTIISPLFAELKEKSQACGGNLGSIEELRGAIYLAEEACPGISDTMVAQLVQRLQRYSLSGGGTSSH", "assay": "in vitro FRET kinase profiling at […], duplicate"}, "[5]": {"target": "cyclin-dependent kinase 5 (CDK5) (Homo sapiens, UniProt Q00535)", "sequence (Q00535 whole entry)": "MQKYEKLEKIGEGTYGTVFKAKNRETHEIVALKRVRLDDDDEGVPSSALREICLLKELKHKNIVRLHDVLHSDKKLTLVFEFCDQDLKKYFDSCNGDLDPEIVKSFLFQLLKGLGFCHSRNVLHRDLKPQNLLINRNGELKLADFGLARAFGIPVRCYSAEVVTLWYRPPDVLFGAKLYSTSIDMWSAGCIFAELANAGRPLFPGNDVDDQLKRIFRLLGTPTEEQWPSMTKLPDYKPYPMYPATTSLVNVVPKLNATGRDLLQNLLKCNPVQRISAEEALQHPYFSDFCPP", "sequence (Q15078 2-307 partner)": "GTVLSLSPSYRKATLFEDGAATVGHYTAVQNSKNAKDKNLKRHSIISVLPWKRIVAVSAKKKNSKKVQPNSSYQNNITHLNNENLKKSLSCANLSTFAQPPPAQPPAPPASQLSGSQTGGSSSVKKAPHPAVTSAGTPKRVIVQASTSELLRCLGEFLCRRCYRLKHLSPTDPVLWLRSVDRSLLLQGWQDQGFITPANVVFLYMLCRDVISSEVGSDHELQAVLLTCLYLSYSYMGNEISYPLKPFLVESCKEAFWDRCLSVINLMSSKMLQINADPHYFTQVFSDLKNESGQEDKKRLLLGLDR", "assay": "in vitro FRET kinase profiling at […], duplicate"}, "[6]": {"target": "leucine-rich repeat kinase-2 (LRRK2) (Homo sapiens, UniProt Q5S007)", "sequence (Q5S007 whole entry)": "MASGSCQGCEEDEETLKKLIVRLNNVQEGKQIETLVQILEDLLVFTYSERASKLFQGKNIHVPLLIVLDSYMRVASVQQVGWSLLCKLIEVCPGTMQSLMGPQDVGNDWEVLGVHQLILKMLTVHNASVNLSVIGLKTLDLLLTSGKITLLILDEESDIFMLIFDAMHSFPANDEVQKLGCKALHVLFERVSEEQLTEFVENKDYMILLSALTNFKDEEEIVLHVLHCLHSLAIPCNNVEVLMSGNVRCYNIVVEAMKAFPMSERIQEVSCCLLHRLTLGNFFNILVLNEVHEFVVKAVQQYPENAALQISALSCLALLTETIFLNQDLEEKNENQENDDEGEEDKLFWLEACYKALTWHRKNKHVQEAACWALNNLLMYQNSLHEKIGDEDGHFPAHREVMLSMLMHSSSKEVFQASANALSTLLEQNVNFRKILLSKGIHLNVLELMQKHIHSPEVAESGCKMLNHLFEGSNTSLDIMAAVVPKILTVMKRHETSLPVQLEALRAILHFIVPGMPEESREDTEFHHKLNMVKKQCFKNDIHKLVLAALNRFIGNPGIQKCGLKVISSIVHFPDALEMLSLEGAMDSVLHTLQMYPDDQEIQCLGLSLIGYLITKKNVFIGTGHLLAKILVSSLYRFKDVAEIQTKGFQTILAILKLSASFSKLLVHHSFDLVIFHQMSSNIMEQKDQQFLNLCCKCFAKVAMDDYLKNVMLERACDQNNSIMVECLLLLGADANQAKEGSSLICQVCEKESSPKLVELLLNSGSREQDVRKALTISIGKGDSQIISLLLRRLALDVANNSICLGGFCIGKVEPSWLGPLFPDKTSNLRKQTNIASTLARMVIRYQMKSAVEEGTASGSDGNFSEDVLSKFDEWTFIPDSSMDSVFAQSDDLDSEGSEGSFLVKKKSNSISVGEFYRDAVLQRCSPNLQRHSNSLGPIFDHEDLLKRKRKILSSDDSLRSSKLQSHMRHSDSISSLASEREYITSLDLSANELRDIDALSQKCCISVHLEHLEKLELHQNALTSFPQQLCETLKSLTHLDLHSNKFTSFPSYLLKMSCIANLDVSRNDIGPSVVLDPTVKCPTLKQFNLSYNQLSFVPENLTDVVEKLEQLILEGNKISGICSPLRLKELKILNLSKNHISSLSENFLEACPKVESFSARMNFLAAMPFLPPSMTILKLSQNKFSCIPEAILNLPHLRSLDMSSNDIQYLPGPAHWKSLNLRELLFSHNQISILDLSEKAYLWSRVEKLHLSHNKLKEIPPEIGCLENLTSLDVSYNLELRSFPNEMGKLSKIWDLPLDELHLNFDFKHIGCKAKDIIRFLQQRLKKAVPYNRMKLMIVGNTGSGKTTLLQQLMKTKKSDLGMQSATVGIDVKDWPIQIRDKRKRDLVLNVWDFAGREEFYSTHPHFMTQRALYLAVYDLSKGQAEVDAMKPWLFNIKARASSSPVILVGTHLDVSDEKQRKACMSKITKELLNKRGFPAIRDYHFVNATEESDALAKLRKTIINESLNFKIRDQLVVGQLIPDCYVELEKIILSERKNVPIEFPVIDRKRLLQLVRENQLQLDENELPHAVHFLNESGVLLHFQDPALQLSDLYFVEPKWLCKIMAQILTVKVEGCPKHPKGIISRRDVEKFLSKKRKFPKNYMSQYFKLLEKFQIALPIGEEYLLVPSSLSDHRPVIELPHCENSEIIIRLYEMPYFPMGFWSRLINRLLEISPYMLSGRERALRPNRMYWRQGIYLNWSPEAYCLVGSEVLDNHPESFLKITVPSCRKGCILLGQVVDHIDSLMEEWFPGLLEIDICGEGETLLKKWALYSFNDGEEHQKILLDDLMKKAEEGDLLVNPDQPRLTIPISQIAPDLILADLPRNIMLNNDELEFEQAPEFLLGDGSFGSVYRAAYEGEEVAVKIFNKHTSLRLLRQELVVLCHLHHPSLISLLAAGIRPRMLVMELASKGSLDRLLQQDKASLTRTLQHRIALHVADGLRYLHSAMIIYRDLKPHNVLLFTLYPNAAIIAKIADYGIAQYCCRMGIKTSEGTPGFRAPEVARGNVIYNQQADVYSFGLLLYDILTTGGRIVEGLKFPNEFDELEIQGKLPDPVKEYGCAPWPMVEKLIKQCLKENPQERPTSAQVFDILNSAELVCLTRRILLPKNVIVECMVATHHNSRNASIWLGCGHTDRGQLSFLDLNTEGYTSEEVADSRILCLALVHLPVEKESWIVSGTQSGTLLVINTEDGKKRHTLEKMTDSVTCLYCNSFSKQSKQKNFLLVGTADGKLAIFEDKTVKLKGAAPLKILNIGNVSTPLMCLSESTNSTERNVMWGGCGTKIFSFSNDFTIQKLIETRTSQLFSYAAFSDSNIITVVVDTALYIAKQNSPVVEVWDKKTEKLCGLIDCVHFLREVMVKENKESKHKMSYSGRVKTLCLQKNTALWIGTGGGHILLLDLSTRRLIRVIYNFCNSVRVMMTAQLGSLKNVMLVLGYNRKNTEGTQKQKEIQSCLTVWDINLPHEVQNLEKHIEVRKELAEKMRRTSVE", "assay": "in vitro FRET kinase profiling at […], duplicate"}, "[7]": {"target": "T2, serine/threonine protein kinase-3 (MST2) (Homo sapiens, UniProt Q13188)", "T2 sequence (Q13188 1-491)": "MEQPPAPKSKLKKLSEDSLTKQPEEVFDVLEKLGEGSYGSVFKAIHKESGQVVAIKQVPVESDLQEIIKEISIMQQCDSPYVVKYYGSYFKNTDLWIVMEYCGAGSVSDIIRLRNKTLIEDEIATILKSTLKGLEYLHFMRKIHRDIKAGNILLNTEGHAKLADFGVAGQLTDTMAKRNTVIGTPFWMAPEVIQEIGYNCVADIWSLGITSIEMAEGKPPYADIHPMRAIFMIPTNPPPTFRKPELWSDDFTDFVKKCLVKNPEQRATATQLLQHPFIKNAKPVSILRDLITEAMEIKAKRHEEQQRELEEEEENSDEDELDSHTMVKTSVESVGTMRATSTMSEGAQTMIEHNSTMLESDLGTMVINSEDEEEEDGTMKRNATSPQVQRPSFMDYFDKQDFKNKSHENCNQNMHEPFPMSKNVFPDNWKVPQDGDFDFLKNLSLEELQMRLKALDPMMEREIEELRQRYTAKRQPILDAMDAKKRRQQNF", "assay": "in vitro FRET kinase profiling at […], duplicate"}, "[8]": {"target": "glycogen synthase kinase 3-beta (GSK3-β) (Homo sapiens, UniProt P49841)", "sequence (P49841 whole entry)": "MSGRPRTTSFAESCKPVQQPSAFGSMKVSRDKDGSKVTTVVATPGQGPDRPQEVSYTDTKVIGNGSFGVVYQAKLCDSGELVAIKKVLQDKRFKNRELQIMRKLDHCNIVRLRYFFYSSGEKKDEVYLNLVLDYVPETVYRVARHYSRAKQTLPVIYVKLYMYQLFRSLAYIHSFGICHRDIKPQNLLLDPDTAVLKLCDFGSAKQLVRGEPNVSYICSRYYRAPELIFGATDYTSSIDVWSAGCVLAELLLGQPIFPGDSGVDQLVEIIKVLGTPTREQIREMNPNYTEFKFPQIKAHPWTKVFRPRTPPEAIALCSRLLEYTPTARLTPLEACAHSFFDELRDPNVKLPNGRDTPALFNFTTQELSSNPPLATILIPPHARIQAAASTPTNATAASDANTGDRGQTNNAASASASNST", "assay": "in vitro FRET kinase profiling"}, "[9]": {"target": "T3, serine/threonine protein kinase-4 (MST1) (Homo sapiens, UniProt Q13043)", "T3 sequence (Q13043 1-487)": "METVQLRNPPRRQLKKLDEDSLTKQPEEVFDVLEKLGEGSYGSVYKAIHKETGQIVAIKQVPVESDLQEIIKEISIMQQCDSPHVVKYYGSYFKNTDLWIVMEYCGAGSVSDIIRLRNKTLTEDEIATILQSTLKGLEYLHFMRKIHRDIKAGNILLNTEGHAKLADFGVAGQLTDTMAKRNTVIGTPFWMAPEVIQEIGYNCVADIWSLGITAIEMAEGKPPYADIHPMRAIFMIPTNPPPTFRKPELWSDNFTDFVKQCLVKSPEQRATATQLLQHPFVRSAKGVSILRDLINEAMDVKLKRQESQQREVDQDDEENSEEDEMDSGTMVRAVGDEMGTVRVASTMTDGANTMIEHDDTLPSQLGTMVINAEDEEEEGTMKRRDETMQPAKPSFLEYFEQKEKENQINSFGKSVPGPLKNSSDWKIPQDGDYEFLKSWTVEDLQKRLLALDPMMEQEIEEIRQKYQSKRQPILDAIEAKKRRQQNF", "assay": "in vitro FRET kinase profiling at […], duplicate"}, "[10]": {"target": "T4, serine/threonine kinase D2 (Homo sapiens, UniProt Q9BZL6)", "T4 sequence (Q9BZL6 1-878)": "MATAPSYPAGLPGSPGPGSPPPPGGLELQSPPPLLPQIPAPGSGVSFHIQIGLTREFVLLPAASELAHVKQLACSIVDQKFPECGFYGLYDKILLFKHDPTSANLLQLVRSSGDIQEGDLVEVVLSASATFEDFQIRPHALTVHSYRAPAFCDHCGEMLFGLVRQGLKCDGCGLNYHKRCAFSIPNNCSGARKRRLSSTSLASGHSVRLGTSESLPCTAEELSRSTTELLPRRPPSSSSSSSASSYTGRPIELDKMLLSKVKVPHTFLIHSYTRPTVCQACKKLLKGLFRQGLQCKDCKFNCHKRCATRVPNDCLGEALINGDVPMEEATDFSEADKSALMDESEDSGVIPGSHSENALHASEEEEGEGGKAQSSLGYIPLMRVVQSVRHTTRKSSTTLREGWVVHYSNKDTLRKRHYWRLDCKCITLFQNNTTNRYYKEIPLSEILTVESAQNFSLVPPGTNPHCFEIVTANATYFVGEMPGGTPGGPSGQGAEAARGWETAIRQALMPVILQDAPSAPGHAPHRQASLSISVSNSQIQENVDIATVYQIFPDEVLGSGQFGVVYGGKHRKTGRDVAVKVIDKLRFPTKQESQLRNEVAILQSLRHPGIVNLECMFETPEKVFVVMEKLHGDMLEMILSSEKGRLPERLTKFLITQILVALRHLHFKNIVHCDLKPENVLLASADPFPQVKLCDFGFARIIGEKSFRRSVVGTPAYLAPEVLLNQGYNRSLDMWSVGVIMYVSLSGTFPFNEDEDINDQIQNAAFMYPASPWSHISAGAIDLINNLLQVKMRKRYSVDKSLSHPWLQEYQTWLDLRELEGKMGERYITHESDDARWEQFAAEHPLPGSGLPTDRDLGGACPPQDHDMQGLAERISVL", "assay": "in vitro FRET kinase profiling at […], duplicate"}},
  "data": [
    {"smiles": "Cc1cc(C)c2[nH]c(=O)c(-c3[nH]cnc3-c3ccccc3)cc2c1", "note": "[DIPQUO]", "values": [
      {"measurement": "inhibition at 10 µM", "setting": "[1]", "value": "> 70", "unit": "%"},
      {"measurement": "inhibition at 10 µM", "setting": "[2]", "value": "> 70", "unit": "%"},
      {"measurement": "inhibition at 10 µM", "setting": "[3]", "value": "> 70", "unit": "%"},
      {"measurement": "inhibition at 10 µM", "setting": "[4]", "value": "> 70", "unit": "%"},
      {"measurement": "inhibition at 10 µM", "setting": "[5]", "value": "> 70", "unit": "%"},
      {"measurement": "inhibition at 10 µM", "setting": "[6]", "value": "> 70", "unit": "%"},
      {"measurement": "inhibition at 10 µM", "setting": "[7]", "value": "> 70", "unit": "%"},
      {"measurement": "inhibition at 10 µM", "setting": "[8]", "value": 100, "unit": "%"},
      {"measurement": "inhibition at 10 µM", "setting": "[9]", "value": "> 70", "unit": "%"},
      {"measurement": "inhibition at 10 µM", "setting": "[10]", "value": "> 70", "unit": "%"}
    ]}
  ]
}
